Experimental data: patent US11685732B2, “MYST family histone acetyltransferase inhibitors” (Epizyme, Inc., priority 2017, dated 2023)

Assays:
[1] = target: KAT-7 (Homo sapiens (Human), UniProt O95251); assay: KAT-7 biochemical inhibition assay (SAMDI mass spectrometry)
How it was run: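 Read-out was SAMDI time-of-flight MS of formic acid-quenched reactions (0.5% final). Compound dilutions (2% DMSO final) were pre-incubated with 6 nM KAT-7 in 50 mM Tris pH 8.0 with 1 mM DTT, then given 1 μM peptide substrate and 2 μM acetyl-CoA for 120 min at 25 °C. IC50 values were derived.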

[2] = target: KAT-5 (Homo sapiens (Human), UniProt Q92993); assay: KAT-5 biochemical inhibition assay (SAMDI mass spectrometry)
Sequence of KAT-5 (Q92993 other isoform, or with tags, fused parts or gaps): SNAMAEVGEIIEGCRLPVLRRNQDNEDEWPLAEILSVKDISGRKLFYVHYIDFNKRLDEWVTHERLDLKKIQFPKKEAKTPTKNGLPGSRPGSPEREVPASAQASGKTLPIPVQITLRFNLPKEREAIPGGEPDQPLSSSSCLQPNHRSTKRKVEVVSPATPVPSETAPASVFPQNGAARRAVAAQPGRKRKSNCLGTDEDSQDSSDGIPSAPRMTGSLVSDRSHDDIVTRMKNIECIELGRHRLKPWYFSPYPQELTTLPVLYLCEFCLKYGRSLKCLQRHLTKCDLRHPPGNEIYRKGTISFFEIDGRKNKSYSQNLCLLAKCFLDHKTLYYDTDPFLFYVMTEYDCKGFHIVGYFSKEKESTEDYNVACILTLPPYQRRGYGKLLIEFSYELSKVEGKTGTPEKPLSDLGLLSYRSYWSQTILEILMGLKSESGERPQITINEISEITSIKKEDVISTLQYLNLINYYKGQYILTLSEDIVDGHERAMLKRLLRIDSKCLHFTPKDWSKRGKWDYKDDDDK
How it was run: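 Acetylation of 1 μM peptide by 9 nM enzyme with 0.5 μM acetyl-CoA (final) was run 90 min at 25° C in Tris pH 8.0 buffer with DTT, after compound preincubation at 2% DMSO. Formic acid stopped the reaction, and product was quantified by SAMDI mass spectrometry to derive IC50.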

[3] = target: KAT-8 (Homo sapiens (Human), UniProt Q9H7Z6); assay: KAT-8 biochemical inhibition assay (SAMDI mass spectrometry)
Sequence of KAT-8 (Q9H7Z6 other isoform, or with tags, fused parts or gaps): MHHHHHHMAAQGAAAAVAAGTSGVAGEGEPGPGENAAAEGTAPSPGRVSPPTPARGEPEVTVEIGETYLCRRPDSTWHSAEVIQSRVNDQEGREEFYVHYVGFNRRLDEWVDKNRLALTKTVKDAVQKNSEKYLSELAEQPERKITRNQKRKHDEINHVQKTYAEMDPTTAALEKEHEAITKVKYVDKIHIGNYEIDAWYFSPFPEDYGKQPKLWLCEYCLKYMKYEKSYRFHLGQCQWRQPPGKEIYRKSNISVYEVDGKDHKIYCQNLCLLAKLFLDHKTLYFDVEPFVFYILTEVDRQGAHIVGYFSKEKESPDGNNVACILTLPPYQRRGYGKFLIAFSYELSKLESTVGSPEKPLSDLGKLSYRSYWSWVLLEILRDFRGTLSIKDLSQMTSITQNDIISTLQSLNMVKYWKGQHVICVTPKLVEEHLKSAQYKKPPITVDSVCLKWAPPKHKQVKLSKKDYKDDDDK
How it was run: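 Acetylation of 1 μM peptide substrate with 5 μM acetyl-CoA by 12.5 nM enzyme, compound pre-incubated, 2% DMSO, Tris pH 8.0 buffer with DTT, 25 °C for 90 min. Quench with 0.5% formic acid; product read by SAMDI mass spectrometry to give IC50.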

[4] = target: KAT-6A (Homo sapiens (Human), UniProt Q92794); assay: KAT-6A biochemical inhibition assay (SAMDI mass spectrometry)
Sequence of KAT-6A (Q92794 other isoform, or with tags, fused parts or gaps): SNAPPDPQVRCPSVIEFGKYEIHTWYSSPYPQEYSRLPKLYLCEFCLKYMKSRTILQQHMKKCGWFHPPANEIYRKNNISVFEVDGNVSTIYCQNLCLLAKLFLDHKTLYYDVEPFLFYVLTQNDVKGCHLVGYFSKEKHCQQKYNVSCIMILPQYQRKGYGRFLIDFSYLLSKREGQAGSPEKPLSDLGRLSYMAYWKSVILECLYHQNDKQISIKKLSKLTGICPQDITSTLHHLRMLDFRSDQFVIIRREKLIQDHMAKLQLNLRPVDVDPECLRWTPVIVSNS
How it was run: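 IC50 values came from SAMDI time-of-flight mass spectrometry after formic acid quench (0.5% final). Acetylation ran 90 min at 25 °C with 1 μM acetyl coenzyme A and 1 μM peptide substrate, following compound pre-incubation with 12.5 nM KAT-6A in Tris buffer pH 8.0 containing DTT, 2% DMSO final.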

Sequence of KAT-7 (O95251 other isoform, or with tags, fused parts or gaps): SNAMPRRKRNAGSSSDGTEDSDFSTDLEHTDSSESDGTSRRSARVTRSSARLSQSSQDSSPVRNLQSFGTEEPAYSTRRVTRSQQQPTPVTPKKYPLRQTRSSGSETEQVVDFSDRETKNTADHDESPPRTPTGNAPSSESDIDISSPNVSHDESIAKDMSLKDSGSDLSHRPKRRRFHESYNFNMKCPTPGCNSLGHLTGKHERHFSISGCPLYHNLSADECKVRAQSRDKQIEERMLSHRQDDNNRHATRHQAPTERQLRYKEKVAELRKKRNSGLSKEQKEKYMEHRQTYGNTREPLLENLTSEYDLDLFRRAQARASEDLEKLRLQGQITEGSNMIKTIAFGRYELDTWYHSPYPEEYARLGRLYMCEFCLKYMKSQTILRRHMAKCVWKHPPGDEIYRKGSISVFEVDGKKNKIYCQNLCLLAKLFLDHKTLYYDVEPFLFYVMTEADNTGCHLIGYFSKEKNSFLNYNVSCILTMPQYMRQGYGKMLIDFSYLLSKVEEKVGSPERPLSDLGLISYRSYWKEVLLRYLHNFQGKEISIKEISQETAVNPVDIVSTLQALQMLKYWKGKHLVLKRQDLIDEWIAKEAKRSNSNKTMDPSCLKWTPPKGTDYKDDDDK

| SMILES | IC50 [1] | IC50 [2] | IC50 [3] | IC50 [4] |
| --- | --- | --- | --- | --- |
| CCCS(=O)(=O)N1CCC(CS(=O)(=O)NNC(=O)c2cc(-c3cn(C)cn3)cc(Cl)c2F)C1 (stereo not shown) [Compound I-85] | < 10 µM | < 10 µM | 10 to 50 µM | < 10 µM |
| Cn1cnc(-c2cc(Cl)c(F)c(C(=O)NNS(=O)(=O)CC3CCCN(S(=O)(=O)C4CC4)C3)c2)c1 (stereo not shown) [Compound I-86] | < 10 µM | < 10 µM | 10 to 50 µM | < 10 µM |
| O=C(NNS(=O)(=O)CC1CCCCC1)c1cc(-n2ccnn2)cc(Cl)c1F [Compound I-87] | 10 to 50 µM | 10 to 50 µM | 10 to 50 µM | < 10 µM |
| CCNC(=O)N1CCC(CS(=O)(=O)NNC(=O)c2cc(-c3cn(C)cn3)cc(Cl)c2F)C1 (stereo not shown) [Compound I-88] | < 10 µM | < 10 µM | 10 to 50 µM | 10 to 50 µM |
| Cn1cnc(-c2cc(Cl)c(F)c(C(=O)NNS(=O)(=O)CC3CCN(C(=O)CO)C3)c2)c1 (stereo not shown) [Compound I-89] | < 10 µM | 10 to 50 µM | 10 to 50 µM | 10 to 50 µM |
| O=C(NNS(=O)(=O)CC1CCOCC1)c1cc(-n2ccnn2)cc(Cl)c1F [Compound I-90] | 10 to 50 µM | 10 to 50 µM | 10 to 50 µM | 10 to 50 µM |
| Cn1cnc(-c2cc(Cl)c(F)c(C(=O)NNS(=O)(=O)CC3CCCC(S(=O)(=O)C4CCC4)C3)c2)c1 (stereo not shown) [Compound I-91] | < 10 µM | < 10 µM | 10 to 50 µM | < 10 µM |
| CC(C)S(=O)(=O)N1CCC(CS(=O)(=O)NNC(=O)c2cc(-c3cn(C)cn3)cc(Cl)c2F)C1 (stereo not shown) [Compound I-92] | < 10 µM | < 10 µM | 10 to 50 µM | < 10 µM |
| Cn1cnc(-c2cc(Cl)c(F)c(C(=O)NNS(=O)(=O)C[C@H]3CC[C@H](N)CC3)c2)c1 [Compound I-93] | < 10 µM | 10 to 50 µM | 10 to 50 µM | 10 to 50 µM |
| CCCS(=O)(=O)N1CCCC(CS(=O)(=O)NNC(=O)c2cc(-c3cn(C)cn3)cc(Cl)c2F)C1 (stereo not shown) [Compound I-94] | < 10 µM | < 10 µM | 10 to 50 µM | < 10 µM |
| Cn1cnc(-c2cc(Cl)c(F)c(C(=O)NNS(=O)(=O)CC3CN(C(=O)OC(C)(C)C)C3)c2)c1 [Compound I-95] | < 10 µM | 10 to 50 µM | 10 to 50 µM | < 10 µM |
| Cn1cnc(-c2cc(Cl)c(F)c(C(=O)NNS(=O)(=O)C[C@H]3CC[C@H](NC(=O)OC(C)(C)C)CC3)c2)c1 [Compound I-96] | < 10 µM | < 10 µM | 10 to 50 µM | < 10 µM |
| CCNC(=O)NC1CCCC(CS(=O)(=O)NNC(=O)c2cc(-c3cn(C)cn3)cc(Cl)c2F)C1 (stereo not shown) [Compound I-97] | < 10 µM | < 10 µM | 10 to 50 µM | < 10 µM |
| Cc1ncnn1-c1cc(Cl)c(F)c(C(=O)NNS(=O)(=O)CC2CCOCC2)c1 [Compound I-100] | 10 to 50 µM | 10 to 50 µM | 10 to 50 µM | 10 to 50 µM |
| CC(=O)N[C@H]1CC[C@H](CS(=O)(=O)NNC(=O)c2cc(-c3cn(C)cn3)cc(Cl)c2F)CC1 [Compound I-101] | < 10 µM | < 10 µM | 10 to 50 µM | < 10 µM |
| Cn1cnc(-c2cc(Cl)c(F)c(C(=O)NNS(=O)(=O)CC3CCCC(NC(=O)OC(C)(C)C)C3)c2)c1 (stereo not shown) [Compound I-102] | < 10 µM | < 10 µM | 10 to 50 µM | < 10 µM |
| Cn1cnc(-c2cc(Cl)c(F)c(C(=O)NNS(=O)(=O)CC3CCCC(N)C3)c2)c1 (stereo not shown) [Compound I-103] | < 10 µM | 10 to 50 µM | 10 to 50 µM | 10 to 50 µM |
| CN(C)C(=O)NC1CCCC(CS(=O)(=O)NNC(=O)c2cc(-c3cn(C)cn3)cc(Cl)c2F)C1 (stereo not shown) [Compound I-104] | < 10 µM | < 10 µM | 10 to 50 µM | < 10 µM |
| CCNC(=O)N1CCCC(CS(=O)(=O)NNC(=O)c2cc(-c3cn(C)cn3)cc(Cl)c2F)C1 (stereo not shown) [Compound I-105] | < 10 µM | < 10 µM | 10 to 50 µM | < 10 µM |
| Cn1cnc(-c2cc(Cl)c(F)c(C(=O)NNS(=O)(=O)CC3CCN(S(=O)(=O)C4CCC4)C3)c2)c1 (stereo not shown) [Compound I-106] | < 10 µM | < 10 µM | 10 to 50 µM | < 10 µM |
| CCNC(=O)N[C@H]1C[C@@H](CS(=O)(=O)NNC(=O)c2cc(-c3cn(C)cn3)cc(Cl)c2F)C1 [Compound I-107] | < 10 µM | < 10 µM | 10 to 50 µM | < 10 µM |
| Cn1cnc(-c2cc(Cl)c(F)c(C(=O)NNS(=O)(=O)N3CCOCC3)c2)c1 [Compound I-108] | < 10 µM | 10 to 50 µM | 10 to 50 µM | 10 to 50 µM |
